Measured values reported in paper PMC11747885, “Potent inhibitors of the human RNA ligase Rlig1 highlights its role in RNA integrity maintenance under oxidative cellular stress” (Chemical Science, 2025).
Several values for one entry are separate records, joined by “and”; a condition that tells them apart may be missing. Equal entries are not always repeated. Marks after values point to notes of the source that are not given here.

Key:
HEK293 cells [1] = assay: Cell viability assay of HEK293 cells treated with inhibitors and menadione; assay type: cell-based, human; conditions: for Mean Diff, (Predicted (LS) mean diff,) w/o menadione - w menadione: 2 way ANOVA, Šídák's multiple comparisons test, normalised viability
HEK293 cells [2] = assay: RNA integrity analysis of HEK293 cells treated with inhibitors and menadione (TapeStation 28S/18S rRNA); assay type: cell-based, human; conditions: 30 μM compound 24 h
[3] = target: T1, human DNA ligase 1 (hLig1) (Homo sapiens, UniProt P18858); assay: DNA ligation assay with hLig1 and 47 (compound titration); assay type: biochemical; conditions: for Product formation [%] of DNA ligation, hlig1: three replicates
T1 construct: made in house; host or cells: E. coli Rosetta BL21 (DE3), pET28a-hLig1
T1 sequence (P18858 whole entry): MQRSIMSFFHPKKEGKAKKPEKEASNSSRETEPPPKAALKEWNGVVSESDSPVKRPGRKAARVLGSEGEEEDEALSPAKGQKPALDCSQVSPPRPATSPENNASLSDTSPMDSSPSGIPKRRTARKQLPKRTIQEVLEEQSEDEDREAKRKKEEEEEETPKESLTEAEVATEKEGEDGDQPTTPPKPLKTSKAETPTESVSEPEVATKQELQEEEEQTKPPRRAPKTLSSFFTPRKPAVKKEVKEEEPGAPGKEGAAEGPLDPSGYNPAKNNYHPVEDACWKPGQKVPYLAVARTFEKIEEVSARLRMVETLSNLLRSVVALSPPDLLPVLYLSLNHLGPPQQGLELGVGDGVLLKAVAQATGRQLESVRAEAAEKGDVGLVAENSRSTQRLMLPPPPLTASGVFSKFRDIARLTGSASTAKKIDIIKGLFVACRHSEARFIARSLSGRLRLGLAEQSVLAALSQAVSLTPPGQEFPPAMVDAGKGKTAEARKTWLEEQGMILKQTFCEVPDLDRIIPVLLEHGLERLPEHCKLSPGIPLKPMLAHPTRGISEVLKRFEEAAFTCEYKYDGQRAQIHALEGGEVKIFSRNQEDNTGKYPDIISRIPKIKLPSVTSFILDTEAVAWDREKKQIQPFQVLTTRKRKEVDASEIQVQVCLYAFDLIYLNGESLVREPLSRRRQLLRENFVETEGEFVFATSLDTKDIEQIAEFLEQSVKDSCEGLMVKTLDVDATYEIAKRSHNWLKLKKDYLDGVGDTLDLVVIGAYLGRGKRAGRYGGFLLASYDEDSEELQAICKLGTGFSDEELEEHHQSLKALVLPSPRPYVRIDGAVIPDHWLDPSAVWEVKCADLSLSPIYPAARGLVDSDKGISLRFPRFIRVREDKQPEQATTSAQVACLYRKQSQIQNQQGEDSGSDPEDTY

[4] = target: T1, human DNA ligase 1 (hLig1); assay: DNA ligation assay with various hLig1 concentration at constant inhibitor concentration; assay type: biochemical; conditions: 10 μM compound, hLig1 titrated (500 nM to 31.3 nM), 30 min 37 °C
HEK293 cells [5] = assay: Light-microscopy of inhibitor- and menadione-treated HEK293 cells; assay type: cell-based, human; conditions: 30 µM compound 24 h, then menadione 5 h
in vitro = conditions: human
HEK293 cells [6] = assay: Cell viability assay of HEK293 cells treated with inhibitors (CellTiter-Glo)
[7] = Figure 5B, Sigmoidal, 4PL, fit Interrupted

## Nc1nccc(Nc2ccc(NC(=O)c3ccc(Nc4ncnc5ccccc45)cc3)cc2)n1 [Compound 47]
HEK293 cells [1]; 15 µM compound, w Menadione (40µM), 20240508 plate 012
  Cell viability raw signal, technical replicates: 20771 and 17972 and 20655 and 18810
HEK293 cells [1]; 15 µM compound, w Menadione (40µM), 20240508 plate 013
  Cell viability raw signal, technical replicates: 17686 and 14464 and 20096 and 19671
HEK293 cells [1]; 15 µM compound, w Menadione (40µM), 20240515 plate 014
  Cell viability raw signal, technical replicates: 22870 and 22437 and 28706 and 27891
HEK293 cells [1]; 15 µM compound, w Menadione (40µM), 20240515 plate 015
  Cell viability raw signal, technical replicates: 23978 and 24873 and 26687 and 23492
HEK293 cells [1]; 30 µM compound
  Mean Diff, (Predicted (LS) mean diff,) w/o menadione - w menadione: 26.18
HEK293 cells [1]; 30 µM compound, w Menadione (40µM), 20240508 plate 012
  Cell viability raw signal, technical replicates: 17555 and 22131 and 18922 and 17419
HEK293 cells [1]; 30 µM compound, w Menadione (40µM), 20240508 plate 013
  Cell viability raw signal, technical replicates: 13658 and 13606 and 15514 and 16155
HEK293 cells [1]; 30 µM compound, w Menadione (40µM), 20240515 plate 014
  Cell viability raw signal, technical replicates: 15897 and 16266 and 21346 and 20584
HEK293 cells [1]; 30 µM compound, w Menadione (40µM), 20240515 plate 015
  Cell viability raw signal, technical replicates: 19537 and 20556 and 18511 and 24331
HEK293 cells [1]; 30 µM compound, w/o Menadione, 20240508 plate 012
  Cell viability raw signal, technical replicates: 338540 and 348450 and 357680 and 361520
HEK293 cells [1]; 60 µM compound
  Mean Diff, (Predicted (LS) mean diff,) w/o menadione - w menadione: 29.66
HEK293 cells [1]; 60 µM compound, w Menadione (40µM), 20240508 plate 012
  Cell viability raw signal, technical replicates: 68212* and 77972* and 10202 and 14953
HEK293 cells [1]; 60 µM compound, w Menadione (40µM), 20240508 plate 013
  Cell viability raw signal, technical replicates: 97500* and 94661* and 7245 and 13149
HEK293 cells [1]; 60 µM compound, w Menadione (40µM), 20240515 plate 014
  Cell viability raw signal, technical replicates: 23954 and 23288 and 10147 and 14983
HEK293 cells [1]; 60 µM compound, w Menadione (40µM), 20240515 plate 015
  Cell viability raw signal, technical replicates: 24869 and 20588 and 9258 and 15604
HEK293 cells [1]; 60 µM compound, w/o Menadione, 20240508 plate 012
  Cell viability raw signal, technical replicates: 309000 and 323530 and 287920 and 324080
HEK293 cells [1]; 60 µM compound, w/o Menadione, 20240508 plate 013
  Cell viability raw signal, technical replicates: 294060 and 325150 and 301550 and 314910
HEK293 cells [1]; 60 µM compound, w/o Menadione, 20240515 plate 014
  Cell viability raw signal, technical replicates: 295270 and 285610 and 291450 and 291110
HEK293 cells [1]; 60 µM compound, w/o Menadione, 20240515 plate 015
  Cell viability raw signal, technical replicates: 292640 and 290230 and 291370 and 285220
HEK293 cells [1]; inhibitor 24 h, then 40 μM menadione 5 h
  cell viability under oxidative stress (in words): significantly reduced viability only when the cells were stressed
HEK293 cells [2]; Menadione 0 μM
  28S/18S ratio: 3.0
HEK293 cells [2]; Menadione 40 μM 5 h
  28S/18S ratio: 2.1
HEK293 cells [2]; Menadione 60 μM 5 h
  28S/18S ratio: 0.9
[3]; 1:2 dilution series starting from 30 μM compound, 500 nM hLig1, 20 min 37 °C
  effect on DNA ligase activity (in words): No effect
[3]; [7]
  Bottom (best-fit value), hlig1: -4.954
  HillSlope (best-fit value), hlig1: -3.033
  Span (best-fit value), hlig1: 97.9
  Top (best-fit value), hlig1: 92.94
[3]; Figure 5B, Sigmoidal, 4PL, fit Interrupted, log of µM
  LogIC50 (best-fit value), hlig1: 1.72
[3]; log (47 [µM]) 0.273001
  Product formation [%] of DNA ligation, hlig1: -3.458% and -4.463% and -2.953%
[3]; log (47 [µM]) 0.574031
  Product formation [%] of DNA ligation, hlig1: -2.567% and -4.108% and -2.802%
[3]; log (47 [µM]) 0.875061
  Product formation [%] of DNA ligation, hlig1: -2.276% and -3.138% and -3.06%
[3]; log (47 [µM]) 1.17609
  Product formation [%] of DNA ligation, hlig1: 0.5458% and -2.902% and -1.203%
[3]; log (47 [µM]) 1.47712
  Product formation [%] of DNA ligation, hlig1: 11.4249% and 9.911% and 18.8699%
[3]; log (47 [µM]) -0.0280287
  Product formation [%] of DNA ligation, hlig1: -3.67% and -4.363% and -3.165%
[3]; log (47 [µM]) -0.329059
  Product formation [%] of DNA ligation, hlig1: -3.453% and -3.785% and -3.456%
[3]; log (47 [µM]) -0.630089
  Product formation [%] of DNA ligation, hlig1: -3.095% and -4.479% and -2.914%
[4]
  effect on hLig1 activity (in words): least impact on hLig1 activity
HEK293 cells [5]
  cell morphology: poor adherence and cell shrinkage
In vitro
  viability at 24 h, 0.234375 µM: 109%
  viability at 24 h, 0.46875 µM: 101%
  viability at 24 h, 0.9375 µM: 102%
  viability at 24 h, 1.875 µM: 102%
  viability at 24 h, 3.75 µM: 97.2%
  viability at 24 h, 7.5 µM: 97.9%
  viability at 24 h, 15 µM: 93%
  viability at 24 h, 30 µM: 86%
HEK293 cells [6]; HEK293, 24 h, up to 30 μM
  cytotoxicity (in words): no detectable cytotoxicity
HEK293 cells [6]; HEK293 cell viability, fit per plate (3 plates, 4 technical replicates each), highest tested concentration 30 µM
  IC50 (Figure 3D: EC50 values for plot; log(inhibitor) vs. response -- Variable slope (four parameters)): 163.557 µM and 35.63 µM and 278.968 µM
HEK293 cells [6]; HEK293 cell viability, fit per plate (3 plates, 4 technical replicates each), log of [µM]
  LogIC50 (log(inhibitor) vs. response -- Variable slope (four parameters)): 2.214 and 1.552 and 2.446
HEK293 cells [6]; Homo sapiens, HEK293, 24 h
  EC50: > 30 µM
